Among the data in PMC6328891, “Synthetic bovine lactoferrin peptide Lfampin kills Entamoeba histolytica trophozoites by necrosis and resolves amoebic intracecal infection in mice” (Bioscience Reports, 2019) are IC50, trophozoites killed and intestinal infection resolved values, retold here.

Experiment [1] relates to E. histolytica HM1:IMSS trophozoites. The format is cell-based, Entamoeba histolytica. The following applies: MTT, 24 h. As to the method: Axenic E. histolytica HM1:IMSS trophozoites were maintained in TYI-S-33 medium supplemented with 15% adult bovine serum (Microlab) and 3% Diamond vitamin stock solution 40× (Sigma-Aldrich) under anaerobic conditions at 37°C for 72 h. Virulence of trophozoites was maintained through successive passages into hamster liver, followed by recovery of parasites from the induced amoebic liver abscesses. Trophozoites grown for 72 h (log-phase) were harvested by ice-chilling for 5 min and centrifugation at 150 g for 5 min at 4°C.
Trophozoites were harvested from cultures after 72 h, as mentioned above, and were seeded in 96-well culture plates at 2 × 10^4 trophozoites in 200 μl of fresh TYI-S-33 medium. […] The plates were incubated for 24 h at 37°C and viability was determined using 3-[4,5-dimethylthiazol-2-yl]-2,5-diphenyltetrazolium bromide (MTT). […] Finally, the absorbance at 595 nm was measured within 15 min, using a plate reader Multiskan FC (Thermo Scientific). A MTT calibration curve was previously calculated using amoeba densities of between 1 × 10^3 and 1 × 10^5 parasites/well. […] The total number of parasites after treatments was also determined following the same methodology, but adding to the wells only 250 µM of the peptides separately and incubating for 24 h at 37°C. Amoebas were harvested by ice chilling for 5 min and counted on a hemocytometer using a Nikon TMS inverted microscope.

Experiment [2] concerns E. histolytica. The following applies: 20 mg/kg orally daily for 7 days, murine model, cited from earlier work. An excerpt:
Intestinal parasite infections, including amoebiasis, remain the main causes of morbidity and mortality in developing countries. In Mexico, amoebiasis is included in the list of the 20 most frequent communicable diseases, as the numbers of new cases of intestinal and hepatic amoebiasis in 2016 were approximately 220000 and 560, respectively, according to the Secretary of Health (http://www.epidemiologia.salud.gob.mx/anuario/2016/morbilidad/nacional/distribucion_casos_nuevos_enfermedad_fuente_notificacion.pdf). Treatment with metronidazole and other nitro-imidazole derivatives remains the ... || Finally, our results regarding the high efficiency of the peptides at resolving murine intestinal amoebiasis opens the possibility of using them as potential new compounds for the treatment of the disease, either alone or in combination with metronidazole. This would reduce the concentration of the drug needed to resolve an amoebic infection and, in turn, reduce the adverse effects of the drug and the potential development of resistance in the parasite. The mechanism by which the peptides controlled intestinal infection by amoebas in mice remains unknown. The higher efficiency of Lfampin, whic ...

Read-outs that look alike come from different tables or passages of the source. Ends that are not written are not given here.

The term IC50 denotes the concentration that inhibits the measured activity by half. With DLIWKLLSKAQEKFGKNKSR [Lfampin], the IC50 in experiment [1] (37°C, estimated (Supplementary Figure S1)) is 220 µM. Also, the trophozoites killed in experiment [1] (doses higher than 100 μM) is given as 80%.

For the substance lactoferrin, the results for the intestinal infection resolved result in experiment [2] and in experiment [2] (listed as native Lf) were “up to 63%” and 63%, respectively.
